This note sets out measurements from article PMC4403042, “Atrial-like cardiomyocytes from human pluripotent stem cells are a robust preclinical model for assessing atrial-selective pharmacology” (EMBO Molecular Medicine, 2015).

For one experiment, the system named is differentiating hESCs. Description: AP characterization of CMs generated from RA-treated differentiations (patch-clamp). Type of experiment: cell-based, human. From the text: To study the electrical phenotype of CMs treated with RA during differentiation, we measured APs of dissociated single cells using the patch-clamp method (Fig3). Representative APs stimulated at 1 Hz are shown in Fig3B. The AP of a CM treated with RA during differentiation (RA) depicts an AP with a fast phase-1 repolarization and a plateau phase with a more negative potential compared to a control (CT) CM (Fig3B).
Spin EBs resulting from control and RA-treated differentiations were dissociated at day 17 to single cells using TrypLE™ Select (Life Technologies) and plated on gelatin-coated coverslips. Electrophysiological measurements were performed 10–14 days after dissociation from intrinsically quiescent single GFP^+ CMs that were able to contract upon field stimulation.
APs and membrane currents from hESC-CMs were recorded with the amphotericin-B-perforated patch-clamp technique at 36 ± 0.2°C using an Axopatch 200B amplifier (Molecular Devices, Sunnyvale, CA, USA). […] AP measurements were low-pass-filtered (cutoff frequency 10 kHz) and digitized at 40 kHz; membrane currents were measured at 1 and 4 kHz, respectively. Capacitance and series resistance were compensated by ≥ 80%, and APs were corrected for the calculated liquid junction potential (Barry & Lynch, [1991]). […]
A general note: In patch-clamp work, channel activity is measured electrically.

The subject of a further experiment is embryoid bodies (EBs). Kind of experiment: Beating frequency of embryoid bodies from CT or RA differentiations. It counts as cell-based, human. The following applies: RA-treated EBs, N=16, 37 degrees; control 45/min. From the text: EMBO Molecular Medicine Peer Review Process File - EMM-2014-04757
Please, discuss this finding.
The reviewer raises an important point and we have now discussed this finding on page-17 of the
the atrial-selective ion channel gene, KCNA5. These experiments also established that KCNJ3 and
KCNJ5 are regulated by COUP-TFII.
KCNJ3 and KCNJ5 in atrial CMs. Future studies aimed at dissecting the roles of COUP-TFI and
COUP-TFII during atrial differentiation are required to understand whether these genes act in
It also remains to be tested if
loss of COUP-TFI can be rescued by COUP-TFII and vice versa. However, since myocardial
ablation of COUP-TFII in the mouse results in a severe phenotype (25), it seems unlikely that
COUP-TFI can account for loss of COUP-TFII. Nonetheless, it is likely that deletion of both COUP-
TFI and COUP-TFII might result in a more severe phenotype”.
On page 5 a Fig S1G is introduced; this should be Fig S1F
This was an error, which has now been corrected.
Fig S2 is not introduced in the main text.
We apologize for the missing text describing Fig. S2. This is now included on page 6 of the revised
Fig 5 panel G label must be corrected. […]
a platform maintained at 37 degrees. We determined the beating frequency of N=16 EBs each. […]
rates recorded were 45/min in control EBs and 60/min in RA-treated EBs (Error bars represent […]

The structures appear in SMILES notation.

Consider `CC1=C(/C=C/C(C)=C/C=C/C(C)=C/C(=O)O)C(C)(C)CCC1` [RA, all-trans retinoic acid], for which, in the experiment with differentiating hESCs (RA group, 1 Hz, CT group > 80 mV), the “APAplat of individual cells” value is below 80 mV. Further, the “cells with atrial-like action potential properties” value in the experiment on differentiating hESCs (RA treatment group, of 26 cells) is on record as “about 85%”. Further, in the experiment with embryoid bodies (EBs), the “beating frequency of EBs” value is 60 min⁻¹.
